Literature values as cited in PMC7395068, “The evolution of strategies to minimise the risk of human drug-induced liver injury (DILI) in drug discovery and development” (Archives of Toxicology, 2020).
Like-named read-outs stand apart in the source and are kept apart here.

Assays:
[1] = system: primary human hepatocytes, NIH3T3 fibroblasts, BSEP, CYP3A4; conditions: In vitro Assay; ref Schadt 2015; cited from earlier work
[2] = system: THLE-Null and THLE-3A4 cells; conditions: In vitro Assay; ref Gustafsson 2014; cited from earlier work
rBsep = conditions: In vitro Assay; ref Dawson 2012; cited from earlier work
[3] = cited from earlier work
[4] = cited from earlier work; remark: listed apart in the source
[5] = system: isolated mouse liver mitochondria; conditions: In vitro Assay; ref Porceddu 2012; cited from earlier work
PHH spheroids = conditions: In vitro Assay; ref Vorrink 2018; cited from earlier work
human hepatocytes = conditions: cited from earlier work
[6] = cited from earlier work; remark: listed apart in the source
[7] = system: THLE or HepG2 cells, isolated mitochondria, BSEP; conditions: cited from earlier work
HepG2 cells [8] = conditions: In vitro Assay; ref O'Brien 2006; cited from earlier work
HepG2 cells [9] = conditions: In vitro Assay; ref Persson 2013; cited from earlier work

## Nc1nc2c(ncn2COCCO)c(=O)[nH]1 [acyclovir]
[1]
  Cellular toxicity (3T3 cells): -VE
  Combined Assay: -VE
  GSH adduct HML: -VE
  Hepatocyte cellular toxicity: -VE
  MitoTox 3T3: -VE
  TDI CYP3A4: -VE
  hBSEP inhibition: -VE
[2]
  THLE-Null: -VE
rBsep
  Inhibition of rBsep cutoff<1& cmax u>.2: -VE
  Inhibition of rBsep cutoff<3: -VE
[3]; in vivo
  DILI +VE (5-8), DILI -VE (-4): +VE
  DILI severity category: vLess-DILI-Concern
[4]; in vivo
  DILI Score (FDA) (1-8): 5

## NC12CC3CC(CC(C3)C1)C2 [amantadine]
[5]
  in vitro data EC2<=1x Cmax: -VE
[3]; in vivo
  DILI +VE (5-8), DILI -VE (-4): -VE
  DILI severity category: Ambiguous DILI-concern
PHH spheroids
  hLiMTs ATP <20 x Cmax: -VE
[4]; in vivo
  DILI Score (FDA) (1-8): 3
Human hepatocytes; In vitro Assay, ref Xu 2008
  Structural based (HCI): -VE
[6]; in vivo
  In vivo DILI: -VE

## CC1(C)S[C@@H]2[C@H](NC(=O)[C@H](N)c3ccc(O)cc3)C(=O)N2[C@H]1C(=O)O [amoxicillin]
[5]
  in vitro data EC2<=1x Cmax: +VE
  in vitro data EC20<=2uM: +VE
[2]
  THLE-Null: -VE
rBsep
  Inhibition of rBsep cutoff<1& cmax u>.2: -VE
  Inhibition of rBsep cutoff<3: -VE
[3]; ref Chen 2016
  DILI +VE (5-8), DILI -VE (-4): +VE
  DILI severity category: vLess-DILI-Concern
[4]; ref Chen 2011
  DILI Score (FDA) (1-8): 3
[6]; […]
  In vivo DILI: -VE
[6]; ref Aleo 2019
  In vivo DILI: +VE
[6]; ref Dawson 2012
  In vivo DILI: -VE
[6]; ref Garside 2014
  In vivo DILI: +VE
[6]; ref Gustafsson 2014
  In vivo DILI: +VE
[6]; ref Porceddu 2012
  In vivo DILI: +VE
[6]; ref Schadt 2015
  In vivo DILI: -VE
[7]; In vitro Assay, ref Aleo 2019
  Partition Hybrid HRM Score: -VE
  Ro2 Hybrid HRM Score: -VE

## CS(=O)(=O)OCCCCOS(C)(=O)=O [busulfan]
[5]
  in vitro data EC2<=1x Cmax: +VE
  in vitro data EC20<=2uM: -VE
[3]; ref Chen 2016
  DILI +VE (5-8), DILI -VE (-4): +VE
  DILI severity category: vMost-DILI-Concern
[4]; ref Chen 2011
  DILI Score (FDA) (1-8): 8
[6]; […]
  In vivo DILI: +VE
[6]; ref Porceddu 2012
  In vivo DILI: +VE

## OC(Cn1cncn1)(Cn1cncn1)c1ccc(F)cc1F [fluconazole]
[5]
  in vitro data EC2<=1x Cmax: +VE
  in vitro data EC20<=2uM: -VE
[3]; ref Chen 2016
  DILI +VE (5-8), DILI -VE (-4): +VE
  DILI severity category: vMost-DILI-Concern
PHH spheroids
  hLiMTs ATP <20 x Cmax: -VE
[4]; ref Chen 2011
  DILI Score (FDA) (1-8): 8
Human hepatocytes; In vitro Assay, ref Xu 2008
  Structural based (HCI): -VE
[6]; […]
  In vivo DILI: +VE
[6]; ref Aleo 2019
  In vivo DILI: +VE
[6]; ref Porceddu 2012
  In vivo DILI: +VE
[6]; ref Vorrink 2018
  In vivo DILI: +VE
[6]; ref Xu 2008
  In vivo DILI: +VE
[7]; In vitro Assay, ref Aleo 2019
  Ro2 Hybrid HRM Score: -VE

## O=C(c1ccccc1)c1ccc2n1CCC2C(=O)O (stereo not drawn) [ketorolac]
[3]; ref Chen 2016
  DILI +VE (5-8), DILI -VE (-4): +VE
  DILI severity category: vLess-DILI-Concern
HepG2 cells [8]
  Structural based (HCI): -VE
PHH spheroids
  hLiMTs ATP <20 x Cmax: +VE (IC20 < 20 × Cmax.tot cut-off)
[4]; ref Chen 2011
  DILI Score (FDA) (1-8): 3
Human hepatocytes; In vitro Assay, ref Xu 2008
  Structural based (HCI): -VE
HepG2 cells [9]
  Cluser analysis: -VE
  Structural based (HCI): -VE
[6]; ref Aleo 2019
  In vivo DILI: +VE
[6]; ref O'Brien 2006
  In vivo DILI: +VE
[6]; ref Persson 2013
  In vivo DILI: +VE
[6]; ref Vorrink 2018
  In vivo DILI: +VE
[6]; ref Xu 2008
  In vivo DILI: +VE
[7]; In vitro Assay, ref Aleo 2019
  Partition Hybrid HRM Score: -VE
  Ro2 Hybrid HRM Score: -VE

## Sc1ncnc2nc[nH]c12 [mercaptopurine]
[5]
  in vitro data EC2<=1x Cmax: -VE
  in vitro data EC20<=2uM: +VE
[3]; ref Chen 2016
  DILI +VE (5-8), DILI -VE (-4): +VE
  DILI severity category: vMost-DILI-Concern
HepG2 cells [8]
  Structural based (HCI): +VE
PHH spheroids
  hLiMTs ATP <20 x Cmax: +VE (IC20 < 20 × Cmax.tot cut-off)
[4]; ref Chen 2011
  DILI Score (FDA) (1-8): 8
Human hepatocytes; In vitro Assay, ref Xu 2008
  Structural based (HCI): -VE
HepG2 cells [9]
  Cluser analysis: +VE
  Structural based (HCI): +VE
[6]; […]
  In vivo DILI: +VE
[6]; ref Aleo 2019
  In vivo DILI: +VE
[6]; ref O'Brien 2006
  In vivo DILI: +VE
[6]; ref Persson 2013
  In vivo DILI: +VE
[6]; ref Porceddu 2012
  In vivo DILI: +VE
[6]; ref Vorrink 2018
  In vivo DILI: +VE
[6]; ref Xu 2008
  In vivo DILI: +VE
[7]; In vitro Assay, ref Aleo 2019
  Partition Hybrid HRM Score: +VE
  Ro2 Hybrid HRM Score: +VE

## Cc1cccc(C)c1OCC(C)N (stereo not drawn) [mexiletine]
[3]; in vivo
  DILI +VE (5-8), DILI -VE (-4): +VE
  DILI severity category: vMost-DILI-Concern
PHH spheroids
  hLiMTs ATP <20 x Cmax: +VE (IC20 < 20 × Cmax.tot cut-off)
[4]; in vivo
  DILI Score (FDA) (1-8): 3
Human hepatocytes
  Structural based (HCI): +VE
[6]; in vivo
  In vivo DILI: +VE

## CN(C)c1ccc(O)c2c1C[C@H]1C[C@H]3[C@H](N(C)C)C(O)=C(C(N)=O)C(=O)[C@@]3(O)C(O)=C1C2=O [minocycline]
[3]; in vivo
  DILI +VE (5-8), DILI -VE (-4): +VE
  DILI severity category: vMost-DILI-Concern
HepG2 cells [8]
  Structural based (HCI): +VE
[4]; in vivo
  DILI Score (FDA) (1-8): 2
HepG2 cells [9]
  Cluser analysis: -VE
  Structural based (HCI): -VE
[6]; in vivo
  In vivo DILI: +VE
[7]
  Ro2 Hybrid HRM Score: +VE

## O=C1CC[C@@]2(O)[C@H]3Cc4ccc(O)c5c4[C@@]2(CCN3CC2CC2)[C@H]1O5 [naltrexone]
[2]
  THLE-Null: -VE
  THLE-Null/3A4: -VE
[3]; in vivo
  DILI +VE (5-8), DILI -VE (-4): -VE
  DILI severity category: Ambiguous DILI-concern
[4]; in vivo
  DILI Score (FDA) (1-8): 3
Human hepatocytes; In vitro Assay, ref Xu 2008
  Structural based (HCI): -VE
[6]; in vivo
  In vivo DILI: +VE

## CNC(=C[N+](=O)[O-])NCCSCc1csc(CN(C)C)n1 [nizatidine]
[3]; ref Chen 2016
  DILI +VE (5-8), DILI -VE (-4): +VE
  DILI severity category: vLess-DILI-Concern
HepG2 cells [8]
  Structural based (HCI): +VE (lowest HCI endpoint IC50 (or in the absence of dose–response < 100 µM) < 30 × total human plasma exposure levels (Cmax.tot))
[4]; ref Chen 2011
  DILI Score (FDA) (1-8): 5
[6]; ref Aleo 2019
  In vivo DILI: +VE
[6]; ref O'Brien 2006
  In vivo DILI: +VE
[7]; In vitro Assay, ref Aleo 2019
  Partition Hybrid HRM Score: -VE
  Ro2 Hybrid HRM Score: -VE

## CCCCCCCCCCC[C@@H](C[C@@H]1OC(=O)[C@H]1CCCCCC)OC(=O)[C@H](CC(C)C)NC=O [orlistat]
[3]; ref Chen 2016
  DILI +VE (5-8), DILI -VE (-4): +VE
  DILI severity category: vMost-DILI-Concern
[4]; ref Chen 2011
  DILI Score (FDA) (1-8): 8
[6]; ref Aleo 2019
  In vivo DILI: +VE
[7]; In vitro Assay, ref Aleo 2019
  Partition Hybrid HRM Score: +VE
  Ro2 Hybrid HRM Score: +VE

## C=CC[C@@H]1/C=C(\C)C[C@H](C)C[C@H](OC)[C@H]2O[C@@](O)(C(=O)C(=O)N3CCCC[C@H]3C(=O)O[C@H](/C(C)=C/[C@@H]3CC[C@@H](O)[C@H](OC)C3)[C@H](C)[C@@H](O)CC1=O)[C@H](C)C[C@@H]2OC [tacrolimus]
[3]; ref Chen 2016
  DILI +VE (5-8), DILI -VE (-4): +VE
  DILI severity category: vLess-DILI-Concern
[4]; ref Chen 2011
  DILI Score (FDA) (1-8): 5
[6]; ref Aleo 2019
  In vivo DILI: +VE
[7]; In vitro Assay, ref Aleo 2019
  Partition Hybrid HRM Score: -VE
  Ro2 Hybrid HRM Score: -VE

## CCC[C@@]1(CCc2ccccc2)CC(O)=C([C@H](CC)c2cccc(NS(=O)(=O)c3ccc(C(F)(F)F)cn3)c2)C(=O)O1 [tipranavir]
[3]; ref Chen 2016
  DILI +VE (5-8), DILI -VE (-4): +VE
  DILI severity category: vMost-DILI-Concern
[4]; ref Chen 2011
  DILI Score (FDA) (1-8): 8
[6]; ref Aleo 2019
  In vivo DILI: +VE
[7]; In vitro Assay, ref Aleo 2019
  Partition Hybrid HRM Score: +VE
  Ro2 Hybrid HRM Score: +VE

## carboplatin
[3]; ref Chen 2016
  DILI +VE (5-8), DILI -VE (-4): +VE
  DILI severity category: vLess-DILI-Concern
[4]; ref Chen 2011
  DILI Score (FDA) (1-8): 3
[6]; ref Aleo 2019
  In vivo DILI: +VE
[7]; In vitro Assay, ref Aleo 2019
  Partition Hybrid HRM Score: -VE
  Ro2 Hybrid HRM Score: -VE
